{"source": "paper PMC11926411", "about": "(Cell Structure and Function, 2019)", "key": {"Ras-PI3K complex": {"tested_on": "Ras-PI3K complex", "format": "cell-based", "conditions": "Cos-1 cells, VN-H-Ras G12V, time-lapse confocal after Vps34-IN1; n=12", "method": "Imaging of BiFC and FRET, and their data analysis were performed essentially as described previously ([Fujioka et al., 2013]; [Ohba et al., 2003]; [Tsutsumi et al., 2009]). In brief, cells plated on a collagen-coated, 35-mm-diameter glass-base dish were transfected with expression vectors. After 24 hours, cells were serum-starved in phenol red-free DMEM/F12 (Thermo Fisher Scientific) for 4 hours and placed in a stage-top incubation chamber (Live Cell Instrument, Soul, Korea) that was maintained at 37°C. Beginning at 10 min, cells were stimulated with 100 ng/ml EGF. BiFC images were acquired using a spinning disk mode, whereas FRET images were obtained using epifluorescence mode. To represent FRET efficacy, the FRET/CFP emission ratio was calculated as the quotient of background-subtracted FRET and CFP images. To stabilize jittery image stacks of time-lapse data set, ‘Image Stabilizer’ plug-in of ImageJ (https://imagej.nih.gov/ij) was used. MetaMorph software converts image stacks of time-lapse data set into one QuickTime movie.\nVesicles positive for a BiFC signal (from Ras-PI3K complex) or TagRFP (EEA-1) were extracted with the use of the ‘Top Hat’ module of MetaMorph software, and colocalization of the Ras-PI3K complex with EEA-1 was quantified with the use of the ‘measure colocalization’ function of the software."}, "class III PI3K Vps34": {"tested_on": "class III PI3K Vps34", "experiment": "Time-lapse confocal imaging of endosomal markers after Vps34 inhibition", "conditions": "Cos-1 cells, Vps34-IN1 treatment", "excerpt": "Cells were imaged with an IX-83 microscope (Olympus, Tokyo, Japan) equipped with a BioPoint MAC6000 filter and shutter control unit (Ludl Electronic Products, Hawthorne, NY, USA), an automated XY-stage (Chuo Precision Industrial, Tokyo, Japan), an sDISK spinning disk confocal microscope (Andor Technology, Belfast, UK), and a Rolera EM-C^2 electron multiplying cooled charge-coupled device camera (QImaging, Surrey, BC, Canada). For epifluorescence microscopy, cells were illuminated with a SOLA Light Engine (Lumencor, Beaverton, OR, USA) and the following excitation and emission filters were used: FF02-438/24 and FF01-483/32 (Semrock, Rochester, NY, USA) for CFP; BP470-490 and BP510-550 (Olympus) for FITC; FF02-438/24 and FF01-542/27 for FRET; and BP520-550 and BA580IF (Olympus) for Alexa Fluor 594 and mRFP. For spinning-disk confocal imaging, cells were illuminated with a four-line (405, 488, 561, and 633 nm) laser module (Spectral Applied Research, Hamilton, ON, Canada) and the following emission filters were used: FF01-483/32 for CFP, FF01-542/27 for FRET, and BA580IF for TagRFP. Typical exposure times for 2×2 binning were 0.3 s. […]\nTwenty-four hours after transfection, the cells were subjected to time-lapse confocal microscopy. […] P<0.0001 compared with before treatment, as calculated by repeated-measures ANOVA."}}}
{"smiles": "CC(C)(O)CNc1ncc(-c2ccnc(Nc3ccnc(Cl)c3)n2)c(CC2CC2)n1", "note": "[Vps34-IN1]", "values": [{"measurement": "Amount of the Ras-PI3K complex in the endosome (BiFC)", "setting": "Ras-PI3K complex", "result": "partially, but significantly reduced"}, {"measurement": "Endosomal localization of CFP-tagged Rab5", "setting": "class III PI3K Vps34", "result": "accumulated in the endosome"}, {"measurement": "Fluorescence signal in endosomes of RFP-tagged EEA-1", "setting": "class III PI3K Vps34", "result": "dramatically dispersed"}]}
